These are literature values, as cited in patent publication EP4459286A1, “KIT FOR QUANTITATIVELY DETERMINING TACROLIMUS IN WHOLE BLOOD BY LOW-RESISTANCE LATEX-ENHANCED IMMUNE COMPETITION METHOD, AND USE THEREOF” (SHANGHAI YUNZE BIOTECHNOLOGY CO., LTD, priority 2021, dated 2023).

Like-named read-outs stand apart in the source and are kept apart here.

The conditions of data set [1]: rescue therapy, cyclosporine ineffective.
For data set [2] the following is noted: compared with cyclosporine.

Consider `C=CC[C@@H]1/C=C(\C)C[C@H](C)C[C@H](OC)[C@H]2O[C@@](O)(C(=O)C(=O)N3CCCC[C@H]3C(=O)O[C@H](/C(C)=C/[C@@H]3CC[C@@H](O)[C@H](OC)C3)[C@H](C)[C@@H](O)CC1=O)[C@H](C)C[C@@H]2OC` [tacrolimus, Tacrolimus], for which the values for the success rate in data set [1] (kidney transplantation patients) and in data set [1] (liver transplantation patients) were 74% and 87%, respectively. For the same molecule, in data set [2], the “effect of preventing rejection in various organ transplants” value was “superior to that of cyclosporine”.
